The subject of this assay is S100A8/A9 protein (calprotectin). Nature of the assay: Extracellular S100A8/A9 level, LPS-stimulated human neutrophils (ELISA). As to conditions: 40, 10 and 1 μM; LPS 10 ng/mL; 30 min; concentration dependent. The assay is classed as cell-based. As to the method: In order to comparatively study the biological activity of urolithins and their derivatives, these compounds were obtained by chemical synthesis, and then their activity against release of calprotectin by stimulated neutrophils was examined. Peripheral blood was collected from healthy donors (aged 20-35) at the Regional Blood Donation and Blood Treatment Center (Regionalne Centrum Krwiodawstwa i Krwiolecznictwa) in Warsaw. The study was conducted in accordance with the principles of the Declaration of Helsinki. […] Neutrophils were isolated using a standard method (Piwowarski et al., 2014a). Neutrophils were then suspended in HBSS. 50 μL of urolithin A, urolithin B or iso-urolitin A at the appropriate concentration (to achieve final concentrations of 40, 10 and 1 μM) and 10 μL of LPS solution (final concentration of 10 ng/mL) were added to 440 μl of cell suspension (3×10^5 cells/mL). Cells were incubated at 37° C. for 30 min, then centrifuged at 4° C., 400 rcf for 10 min. The experiment was carried out on blood samples taken from 4 different donors in duplicates. The effect of urolithins on the production of S100A8/A9 was determined using the immunochemical ELISA method (R&D Systems).
The obtained results of experiments on in vitro models were analyzed using the Statistica 13 program (StatSoft, Inc., Tulsa, OK, USA) and presented as mean values±SEM. […]

The record followed here is US12329738B2, “Urolithin A and a composition containing same for external use in inflammations of various etiologies” (WARSZAWSKI UNIWERSYTET MEDYCZNY, priority 2018, dated 2025).

Take `O=c1oc2cc(O)ccc2c2ccc(O)cc12` [urolithin A]: the “Extracellular level of S100A8/A9 protein (calprotectin)” value was “significant decrease”.
